Results from ChEMBL document CHEMBL2396557, “Functional consequences of retro-inverso isomerization of a miniature protein inhibitor of the p53-MDM2 interaction” (Bioorg Med Chem, 2013).
Calls of active or inactive are those of the source. The rule behind the calls is not given here.

What was measured:
[1] = biological target: T1, E3 ubiquitin-protein ligase Mdm2 (Homo sapiens, UniProt Q00987); experiment: Binding affinity to MDM2 (25 to 109 amino acids) (unknown origin) at 100 uM after 30 mins by surface plasmon resosnance analysis
Target sequence in this assay (Q00987 whole entry, looked up, the tested form may be a part): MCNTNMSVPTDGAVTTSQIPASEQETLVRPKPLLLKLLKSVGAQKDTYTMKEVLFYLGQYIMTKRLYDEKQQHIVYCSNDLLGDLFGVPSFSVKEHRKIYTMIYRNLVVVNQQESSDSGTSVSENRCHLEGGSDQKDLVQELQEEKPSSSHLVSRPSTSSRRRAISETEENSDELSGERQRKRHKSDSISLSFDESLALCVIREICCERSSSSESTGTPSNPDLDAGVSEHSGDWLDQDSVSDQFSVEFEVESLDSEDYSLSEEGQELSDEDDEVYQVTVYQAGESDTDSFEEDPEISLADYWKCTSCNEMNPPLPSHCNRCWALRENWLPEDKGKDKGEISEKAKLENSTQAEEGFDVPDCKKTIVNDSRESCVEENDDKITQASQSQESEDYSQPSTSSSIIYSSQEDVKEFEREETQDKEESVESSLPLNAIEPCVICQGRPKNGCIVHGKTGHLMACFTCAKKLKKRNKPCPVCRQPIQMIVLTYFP

[2] = biological target: T1, E3 ubiquitin-protein ligase Mdm2; experiment: Binding affinity to MDM2 (25 to 109 amino acids) (unknown origin) after 30 mins by surface plasmon resosnance analysis
Target sequence in this assay (Q00987 whole entry, the tested form may be a part): as the sequence (Q00987 whole entry, looked up, the tested form may be a part) above

| Activity [1] | Kd [2] [µM] | Compound |
| --- | --- | --- |
| inactive | – | CC(C)C[C@@H]1NC(=O)[C@@H]2CSSC[C@@H](C(=O)O)NC(=O)[C@H](CC(N)=O)NC(=O)[C@H](CSSC[C@H](NC(=O)[C@H](CC(C)C)NC(=O)[C@H](CCC(N)=O)NC(=O)[C@@H](N)Cc3cnc[nH]3)C(=O)N[C@@H](CCCNC(=N)N)C(=O)N[C@@H](Cc3c[nH]c4ccccc34)C(=O)N[C@@H](Cc3ccc(O)cc3)C(=O)N2)NC(=O)[C@H](CCCCN)NC(=O)[C@H](C)NC(=O)[C@@H]2CCCN2C(=O)[C@H](CCC(=O)O)NC(=O)[C@H]([C@@H](C)O)NC(=O)[C@H](Cc2ccccc2)NC1=O |
| – | 18.1 | CC(C)C[C@@H](NC(=O)[C@@H](CCC(N)=O)NC(=O)[C@H](N)Cc1cnc[nH]1)C(=O)N[C@@H]1CSSC[C@H]2NC(=O)[C@@H](CCCCN)NC(=O)[C@@H](C)NC(=O)[C@H]3CCCN3C(=O)[C@@H](CCC(=O)O)NC(=O)[C@@H]([C@H](C)O)NC(=O)[C@@H](Cc3ccccc3)NC(=O)[C@@H](CC(C)C)NC(=O)[C@@H](CSSC[C@H](C(=O)O)NC(=O)[C@@H](CC(N)=O)NC2=O)NC(=O)[C@@H](Cc2ccc(O)cc2)NC(=O)[C@@H](Cc2c[nH]c3ccccc23)NC(=O)[C@@H](CCCNC(=N)N)NC1=O |
